From patent publication US20230150924A1, “NOVEL COMPOUND HAVING CANCER METASTASIS INHIBITORY ACTIVITY, PREPARATION METHOD THEREFOR, AND PHARMACEUTICAL COMPOSITION FOR INHIBITING CANCER METASTASIS AND INVASION OR TREATING COLORECTAL CANCER, COMPRISING COMPOUND” (CELLGENTEK CO., LTD., priority 2019, published 2023) come the findings set out here.

SMILES strings stand for the structures. Where two headings read alike, the source gives them in different places.

Assay [1] deals with invasion of colorectal cancer cells. As to the kind of experiment: In vivo relative invation (invasion; EV and KITENIN controls, no method described). As to conditions: relative to EV (=1); KIT = KITENIN.
The test system of another assay is KAI1 promoter. Nature of the assay: KAI1 promoter luciferase reporter assay in transfected Caco2 cells. It counts as cell-based, human. Particulars: for fold induction at 1 µM: Homo sapiens, Caco-2, 16 h, read-out: Relative KAI promoter activity.
Where [2] appears, read: 1 μM compound, 16 hours, transfected Caco2 cells, luciferase activity relative to DMSO control (=1).

In the case of `O=C(CNC(=O)c1ccc(F)cc1F)c1ccc(Cl)cc1` [Example 64, N-(2-(4-chlorophenyl)-2-oxoethyl)-2,4ifluorobenzamide], the “In vivo relative invation” value in assay [1] is 1.083. For the same compound, the fold induction at 1 µM with KAI1 promoter (setting [2]) is 1.35.
On the same counts, the results for `O=C(CNC(=O)C1CCC1)c1ccc(N2CCOCC2)cc1` [Example 144, N-(2-(4-morpholinophenyl)-2-oxoethyl)cyclobutanecarboxamide] are 1.284 and 1.08.
For `O=C(COc1ccccc1C(=O)NCC(=O)c1ccccc1)NCc1cccc(F)c1` [Example 205, 2-(2-((fluorobenzyl)amino)-2-oxoethoxy)-N-(2-oxo-2-phenylethyl)benzamide], the “In vivo relative invation” value in assay [1] came out at 1.166. Moreover, the fold induction at 1 µM in the assay with KAI1 promoter (setting [2]) came out at 1.1.
In the case of `COc1ccc(S(=O)(=O)N2CCC(Oc3ccccc3C(=O)NCC(=O)c3ccccc3)CC2)cc1` [Example 189, 2-((1-((4-methoxyphenyl)sulfonyl)piperidin-4-yl)oxy)-N-(2-oxo-2-phenylethyl)benzamide], in assay [1], the “In vivo relative invation” value worked out at 1.185. For the same compound, the fold induction at 1 µM in the assay with KAI1 promoter (setting [2]) stood at 0.9.
`O=C(CNC(=O)c1ccc(-c2ccccc2)cc1)c1ccc(Cl)cc1` [Example 86, N-(2-(4-chlorophenyl)-2-oxoethyl)-[1,1′-biphenyl]-4-carboxamide]: the “In vivo relative invation” value in assay [1] turned out to be 1.193. The fold induction at 1 µM in the assay on KAI1 promoter (setting [2]) was 1.01.
Consider `COc1cccc(C(=O)CNC(=O)c2cccc(CN3CCN(C(=O)OC(C)(C)C)CC3)c2)c1` [Example 289, tert-butyl 4-(3-((2-(3-methoxyphenyl)-2-oxoethyl)carbamoyl)benzyl)piperazine-1-carboxylate], for which the “In vivo relative invation” value in assay [1] was 1.263. Also, the fold induction at 1 µM in the assay on KAI1 promoter (setting [2]) was 1.61.
With `COc1cccc(C(=O)CNC(=O)c2cccc(CN3CCc4ccccc4C3)c2)c1` [Example 279, 3-((3,4-dihydroisoquinolin-2(1H)-yl)methyl)-N-(2-(3-methoxyphenyl)-2-oxoethyl)benzamide], in assay [1], the “In vivo relative invation” value was determined as 1.187. In addition, the fold induction at 1 µM in the assay with KAI1 promoter (setting [2]) came to 2.28.
As to `O=C(CNC(=O)c1cccc([N+](=O)[O-])c1)c1ccccc1` [Example 34, 3-nitro-N-(2-oxo-2-phenylethyl)benzamide], in assay [1], the “In vivo relative invation” value was found to be 1.103. In addition, in the assay on KAI1 promoter (setting [2]), the fold induction at 1 µM stood at 1.34.
For the compound `CCN(C)Cc1cccc(C(=O)NCC(=O)c2cccc(OC)c2)c1` [Example 287, 3-((ethyl (methyl)amino)methyl)-N-(2-(3-methoxyphenyl)-2-oxoethyl)benzamide], the “In vivo relative invation” value in assay [1] was 1.376. In addition, the fold induction at 1 µM in the assay on KAI1 promoter (setting [2]) was 2.06.
For the compound `C=CC(=O)NCC(=O)c1ccc(N(C)C)cc1` [Example 95, N-(2-(4-(dimethylamino)phenyl)-2-oxoethyl)acrylamide], the “In vivo relative invation” value in assay [1] came to 1.16. Besides, the fold induction at 1 µM in the assay with KAI1 promoter (setting [2]) is 1.21.
As to `COc1ccc(C(=O)NCC(=O)c2ccc(Cl)cc2)cc1` [Example 62, N-(2-(4-chlorophenyl)-2-oxoethyl)-4-methoxybenzamide], the “In vivo relative invation” value in assay [1] is on record as 1.122. Moreover, in the assay with KAI1 promoter (setting [2]), the “Relative KAI promoter activity” value was 1.03.
With `O=C(CNC(=O)c1ccccc1OC1CCN(C(=O)c2ccccc2C(F)(F)F)CC1)c1ccccc1` [Example 191, N-(2-oxo-2-phenylethyl)-2-((1-(2-(trifluoromethyl)benzoyl)piperidin-4-yl)oxy)benzamide], the “In vivo relative invation” value in assay [1] is recorded as 1.106. The fold induction at 1 µM with KAI1 promoter (setting [2]) was 0.84.
In the case of `O=C(CNC(=O)C1CCC1)c1ccccc1` [Example 17, N-(2-oxo-2-phenylethyl)cyclobutanecarboxamide], in assay [1], the “In vivo relative invation” value was determined as 0.9288. The fold induction at 1 µM with KAI1 promoter (setting [2]) was found to be 0.98.
`O=C(CNC(=O)c1ccccc1OC1CCN(C(=O)c2cc(Cl)cc(Cl)c2)CC1)c1ccccc1` [Example 197, 2-((1-(3,5-dichlorobenzoyl)piperidin-4-yl)oxy)-N-(2-oxo-2-phenylethyl)benzamide]: the “In vivo relative invation” value in assay [1] came to 1.214. In the assay with KAI1 promoter (setting [2]), the fold induction at 1 µM came out at 0.92.
For the compound `O=C(CNC(=O)c1ccc(CN2CCOCC2)cc1)c1ccccc1` [Example 276, 4-(morpholinomethyl)-N-(2-oxo-2-phenylethyl)benzamide], the “In vivo relative invation” value in assay [1] worked out at 1.224. In the assay with KAI1 promoter (setting [2]), the fold induction at 1 µM was found to be 3.39.
Regarding `C/C=C/C(=O)NCC(=O)c1ccccc1` [Example 8, (E)-N-(2-oxo-2-phenylethyl)but-2-enamide], in assay [1], the “In vivo relative invation” value is 1.077. In the assay on KAI1 promoter (setting [2]), the fold induction at 1 µM was found to be 1.15.
On the same counts, the results for `C#CN(C)Cc1cccc(C(=O)NCC(=O)c2ccccc2)c1` [Example 251, 3-((ethynyl(methyl)amino)methyl)-N-(2-oxo-2-phenylethyl)benzamide] are 1.197 and 2.37.
For `CN(C)c1ccc(C(=O)CNC(=O)c2cccc(C(F)(F)F)c2)cc1` [Example 113, N-(2-(4-(dimethylamino)phenyl)-2-oxoethyl)-3-(trifluoromethyl)benzamide], in assay [1], the “In vivo relative invation” value is 1.167. Also, the fold induction at 1 µM in the assay on KAI1 promoter (setting [2]) came to 1.4.
With `CCC(=O)NCC(=O)c1ccc(Cl)cc1` [Example 54, N-(2-(4-chlorophenyl)-2-oxoethyl) propionamide], the “In vivo relative invation” value in assay [1] is on record as 1.083. In the assay with KAI1 promoter (setting [2]), the fold induction at 1 µM was determined as 0.7.
As for `COc1ccc(C(=O)NCC(=O)c2ccc(N3CCOCC3)cc2)cc1` [Example 140, 4-methoxy-N-(2-(4-morpholinophenyl)-2-oxoethyl)benzamide], the “In vivo relative invation” value in assay [1] is reported as 1.553. Further, the fold induction at 1 µM in the assay with KAI1 promoter (setting [2]) was 1.15.
For the compound `O=C(COc1ccccc1C(=O)NCC(=O)c1ccccc1)Nc1ccccc1` [Example 201, 2-(2-oxo-2-(phenylamino)ethoxy)-N-(2-oxo-2-phenylethyl)benzamide], the “In vivo relative invation” value in assay [1] stood at 0.9283. The fold induction at 1 µM in the assay with KAI1 promoter (setting [2]) was found to be 1.46.
In the case of `CC1CN(Cc2ccc(C(=O)NCC(=O)c3ccccc3)cc2)CC(C)O1` (stereo not drawn) [Example 278, 4-((2,6-dimethylmorpholino)methyl)-N-(2-oxo-2-phenylethyl)benzamide], the “In vivo relative invation” value in assay [1] worked out at 1.217. The fold induction at 1 µM in the assay with KAI1 promoter (setting [2]) is 1.38.
Turning to `CC(=O)Oc1ccccc1C(=O)N1CCC(Oc2ccccc2C(=O)NCC(=O)c2ccccc2)CC1` [Example 176, 2-(4-(2-((2-oxo-2-phenylethyl)carbamoyl)phenoxy)piperidine-1-carbonyl)phenylacetate], the “In vivo relative invation” value in assay [1] is 1.26. Besides, in the assay on KAI1 promoter (setting [2]), the fold induction at 1 µM came to 1.08.
Regarding `CCCCC(=O)NCC(=O)c1cccc(OC)c1` [Example 128, N-(2-(3-methoxyphenyl)-2-oxoethyl)pentanamide], in assay [1], the “In vivo relative invation” value is on record as 1.179. Moreover, the fold induction at 1 µM in the assay with KAI1 promoter (setting [2]) stood at 1.1.
In the case of `Cc1ccccc1C(=O)NCC(=O)c1cccnc1` [Example 135, 2-methyl-N-(2-oxo-2-(pyridin-3-yl)ethyl)benzamide], in assay [1], the “In vivo relative invation” value was 1.485. Moreover, in the assay on KAI1 promoter (setting [2]), the fold induction at 1 µM amounted to 1.3.
The corresponding values for `CCC(=O)NCC(=O)c1ccc(N(C)C)cc1` [Example 99, N-(2-(4-(dimethylamino)phenyl)-2-oxoethyl)propionamide] are 1.134 and 1.71.
Consider `O=C(COc1ccccc1C(=O)NCC(=O)c1ccccc1)Nc1ccc2c(c1)OCO2` [Example 217, 2-(2-(benzo [d] [1,3]dioxol-5-ylamino)-2-oxoethoxy)-N-(2-oxo-2-phenylethyl)benzamide], for which the “In vivo relative invation” value in assay [1] turned out to be 1.266. In addition, the fold induction at 1 µM in the assay on KAI1 promoter (setting [2]) is 1.18.
For the compound `CCCN(CCC)Cc1cccc(C(=O)NCC(=O)c2ccccc2)c1` [Example 248, 3-((dipropylamino)methyl)-N-(2-oxo-2-phenylethyl)benzamide], the “In vivo relative invation” value in assay [1] is 1.116. In addition, the fold induction at 1 µM with KAI1 promoter (setting [2]) was determined as 1.3.
Turning to `O=C(CNC(=O)c1ccco1)c1ccccc1` [Example 5, N-(2-oxo-2-phenylethyl)furan-2-carboxamide], the “In vivo relative invation” value in assay [1] is listed as 0.812. Further, in the assay with KAI1 promoter, the fold induction at 1 µM came out at 1.98.
For the compound `CN(C)c1ccc(C(=O)CNC(=O)c2ccc(F)c(F)c2)cc1` [Example 116, N-(2-(4-(dimethylamino)phenyl)-2-oxoethyl)-3,4ifluorobenzamide], the “In vivo relative invation” value in assay [1] was found to be 1.164. The fold induction at 1 µM in the assay with KAI1 promoter (setting [2]) stood at 2.15.
Consider `CN(C)c1ccc(C(=O)CNC(=O)c2ccco2)cc1` [Example 92, N-(2-(4-(dimethylamino)phenyl)-2-oxoethyl)furan-2-carboxamide], for which, in assay [1], the “In vivo relative invation” value is recorded as 1.064. Further, the fold induction at 1 µM with KAI1 promoter (setting [2]) amounted to 2.29.
With `CC(C)(C)C(=O)N1CCC(Oc2ccccc2C(=O)NCC(=O)c2ccccc2)CC1` [Example 179, N-(2-oxo-2-phenylethyl)-2-((1-pivaloylpiperidin-4-yl)oxy)benzamide], in assay [1], the “In vivo relative invation” value came out at 1.081. Further, the fold induction at 1 µM in the assay with KAI1 promoter (setting [2]) is 0.97.
`O=C(CNC(=O)C1CCC1)c1ccc(Cl)cc1` [Example 57, N-(2-(4-chlorophenyl)-2-oxoethyl)cyclobutanecarboxamide]: the “In vivo relative invation” value in assay [1] was 1.217. Besides, the fold induction at 1 µM with KAI1 promoter (setting [2]) is 0.94.
For `O=C(CNC(=O)c1ccco1)c1ccc(Cl)cc1` [Example 46, N-(2-(4-chlorophenyl)-2-oxoethyl)furan-2-carboxamide], the “In vivo relative invation” value in assay [1] is 1.181. Besides, the fold induction at 1 µM with KAI1 promoter (setting [2]) is 0.98.
With `CC(Oc1ccccc1)C(=O)N1CCC(Oc2ccccc2C(=O)NCC(=O)c2ccccc2)CC1` (stereo not drawn) [Example 152, N-(2-oxo-2-phenylethyl)-2-((1-(2-phenoxypropanoyl)piperidin-4-yl)oxy)benzamide], the “In vivo relative invation” value in assay [1] amounted to 1.16. Moreover, the fold induction at 1 µM in the assay on KAI1 promoter (setting [2]) was 1.08.
Regarding `O=C(CNC(=O)c1ccccc1CN1CCOCC1)c1ccccc1` [Example 304, 2-(morpholinomethyl)-N-(2-oxo-2-phenylethyl)benzamide], the “In vivo relative invation” value in assay [1] is 1.193. Further, the fold induction at 1 µM with KAI1 promoter (setting [2]) came to 1.24.
